System: MCPP-induced Hypolocomotion
Assay: Reversal of MCPP-induced Hypolocomotion
Type: in vivo
Details: po, procedure of WO 94/04533, read-out: ID50 (the source's name)
Description: Reversal of MCPP-induced Hypolocomotion
Compounds were tested following the procedure outlined in WO 94/04533. The compound of example 8 has an ID50 of 10.0 mg/kg p.o.

SMILES: CSc1cc2c(cc1C(F)(F)F)N(C(=O)Nc1cccc(C(=O)NCCN(C)C)c1)CC2 [Example 8, 5-Methylthio-6-trifluoromethyl-1-[3-[(2-dimethylaminoethyl)carbamoyl]phenylcarbamoyl]indoline]
- ED50: 10 mg/kg
